Source: patent US20090099029A1, “Methods and substrates for conducting assays” (Invitrogen Corporation, priority 2005, published 2009)

What was measured:
kinases of Table 5 [1] = target: kinases of Table 5 (Homo sapiens, UniProt O75716); test: Further analysis of a plurality of inhibitors and a plurality of kinases (Table 5 inhibition results); type: biochemical; set-up: scale not given here; settings: kinase STK16 (Part I, plate C3, Domain 1)
Excerpt: (§1) The wash solution is then discarded.

kinases of Table 5 [2] = target: T1, kinases of Table 5 (Homo sapiens, UniProt Q08881); test: as above; type: biochemical; set-up: scale not given here; settings: kinase ITK (Part I, plate E4, Domain 0); inhibitor 100 uM
T1 sequence (Q08881 1-620): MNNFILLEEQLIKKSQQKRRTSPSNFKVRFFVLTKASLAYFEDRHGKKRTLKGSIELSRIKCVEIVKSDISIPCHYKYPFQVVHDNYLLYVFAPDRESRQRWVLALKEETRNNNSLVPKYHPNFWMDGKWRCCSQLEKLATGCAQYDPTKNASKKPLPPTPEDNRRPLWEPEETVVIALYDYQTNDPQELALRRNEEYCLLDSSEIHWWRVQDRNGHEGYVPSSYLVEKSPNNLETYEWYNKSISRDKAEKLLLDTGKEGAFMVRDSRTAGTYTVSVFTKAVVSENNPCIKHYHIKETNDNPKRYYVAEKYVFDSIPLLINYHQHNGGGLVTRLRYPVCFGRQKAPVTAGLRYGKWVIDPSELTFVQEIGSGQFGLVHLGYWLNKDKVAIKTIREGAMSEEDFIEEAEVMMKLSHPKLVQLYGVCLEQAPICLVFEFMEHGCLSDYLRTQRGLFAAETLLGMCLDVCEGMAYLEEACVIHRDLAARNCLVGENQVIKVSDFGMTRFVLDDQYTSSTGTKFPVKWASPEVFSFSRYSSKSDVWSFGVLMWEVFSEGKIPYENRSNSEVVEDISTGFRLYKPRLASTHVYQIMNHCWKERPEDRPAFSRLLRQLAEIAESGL
Excerpt: as §1

kinases of Table 5 [3] = target: T2, kinases of Table 5 (Homo sapiens, UniProt Q13043); test: as above; type: biochemical; set-up: scale not given here; settings: for Inhibition level: kinase STK4; for Inhibition Results (Level): kinase STK4 (Part II, plate D6, Domain 1)
T2 sequence (Q13043 1-487): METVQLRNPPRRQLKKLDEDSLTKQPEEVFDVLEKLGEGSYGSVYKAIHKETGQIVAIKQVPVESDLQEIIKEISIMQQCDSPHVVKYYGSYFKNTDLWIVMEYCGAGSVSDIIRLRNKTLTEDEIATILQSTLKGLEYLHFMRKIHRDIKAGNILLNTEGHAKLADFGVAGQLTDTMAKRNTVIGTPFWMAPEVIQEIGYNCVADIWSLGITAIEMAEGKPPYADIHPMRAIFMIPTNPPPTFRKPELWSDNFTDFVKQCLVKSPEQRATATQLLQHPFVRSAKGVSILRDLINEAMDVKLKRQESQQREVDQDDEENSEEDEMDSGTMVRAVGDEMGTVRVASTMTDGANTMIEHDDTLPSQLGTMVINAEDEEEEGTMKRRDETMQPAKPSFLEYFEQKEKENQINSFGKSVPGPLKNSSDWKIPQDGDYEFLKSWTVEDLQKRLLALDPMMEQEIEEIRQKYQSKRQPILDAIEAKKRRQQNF
Excerpt: as §1

kinases of Table 5 [4] = target: kinases of Table 5 (Homo sapiens, UniProt Q8IVW4); test: as above; type: biochemical; set-up: scale not given here; settings: inhibitor 100 uM; for Inhibition level: kinase CDKL3; for Inhibition Results (Level): kinase CDKL3 (Part II, plate F12, Domain 0)
Sequence of kinases of Table 5 (Homo sapiens, UniProt Q8IVW4) (Q8IVW4 whole entry): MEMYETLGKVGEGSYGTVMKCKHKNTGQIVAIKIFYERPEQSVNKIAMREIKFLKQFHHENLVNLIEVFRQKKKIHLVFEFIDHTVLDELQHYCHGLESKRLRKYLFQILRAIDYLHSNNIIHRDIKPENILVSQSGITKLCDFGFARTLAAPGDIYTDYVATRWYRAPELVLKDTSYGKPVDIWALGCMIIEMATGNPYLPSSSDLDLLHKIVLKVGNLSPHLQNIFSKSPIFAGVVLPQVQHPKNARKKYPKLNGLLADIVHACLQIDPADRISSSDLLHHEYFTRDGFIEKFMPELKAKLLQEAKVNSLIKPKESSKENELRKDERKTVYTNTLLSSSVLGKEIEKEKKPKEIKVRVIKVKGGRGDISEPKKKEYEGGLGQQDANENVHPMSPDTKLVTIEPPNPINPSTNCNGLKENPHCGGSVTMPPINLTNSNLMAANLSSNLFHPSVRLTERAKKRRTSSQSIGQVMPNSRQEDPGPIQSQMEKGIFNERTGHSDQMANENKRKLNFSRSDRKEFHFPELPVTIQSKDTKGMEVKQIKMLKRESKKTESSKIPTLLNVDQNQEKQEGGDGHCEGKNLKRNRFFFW
Excerpt: as §1

kinases of Table 5 [5] = target: T3, kinases of Table 5 (Homo sapiens, UniProt Q96KB5); test: as above; type: biochemical; set-up: scale not given here; settings: kinase TOPK (Part I, plate G7, Domain 1)
T3 sequence (Q96KB5 1-322): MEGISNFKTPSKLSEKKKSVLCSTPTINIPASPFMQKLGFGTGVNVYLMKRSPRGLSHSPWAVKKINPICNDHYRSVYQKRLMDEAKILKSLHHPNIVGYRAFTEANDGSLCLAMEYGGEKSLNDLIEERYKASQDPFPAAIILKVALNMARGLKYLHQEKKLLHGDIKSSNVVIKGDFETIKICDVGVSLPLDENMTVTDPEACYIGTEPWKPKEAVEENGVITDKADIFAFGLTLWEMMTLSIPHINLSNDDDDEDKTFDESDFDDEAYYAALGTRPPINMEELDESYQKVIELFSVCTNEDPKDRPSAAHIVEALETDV
Excerpt: as §1

kinases of Table 5 [6] = target: kinases of Table 5 (Homo sapiens, UniProt Q9Y6E0); test: as above; type: biochemical; set-up: scale not given here; settings: inhibitor 100 uM; for Inhibition level: kinase STK24; for Inhibition Results (Level): kinase STK24 (Part II, plate F11, Domain 0)
Sequence of kinases of Table 5 (Homo sapiens, UniProt Q9Y6E0) (Q9Y6E0 whole entry): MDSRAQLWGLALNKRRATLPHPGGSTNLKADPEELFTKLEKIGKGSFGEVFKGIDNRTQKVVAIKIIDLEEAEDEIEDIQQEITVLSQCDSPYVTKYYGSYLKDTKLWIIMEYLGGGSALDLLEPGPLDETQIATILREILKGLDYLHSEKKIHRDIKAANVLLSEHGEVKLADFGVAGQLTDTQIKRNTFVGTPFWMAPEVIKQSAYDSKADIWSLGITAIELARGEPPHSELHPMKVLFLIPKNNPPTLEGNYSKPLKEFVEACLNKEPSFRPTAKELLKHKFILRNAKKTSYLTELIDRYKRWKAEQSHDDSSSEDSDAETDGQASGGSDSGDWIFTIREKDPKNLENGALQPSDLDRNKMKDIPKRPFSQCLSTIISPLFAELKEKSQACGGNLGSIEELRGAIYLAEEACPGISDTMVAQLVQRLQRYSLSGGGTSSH
Excerpt: as §1

EPHB3 = EPHB3 (Homo sapiens, UniProt P54753); test: Dose-response analysis on 10-well kinase microarray; type: biochemical; settings: different inhibitor concentration in each well; substrate MBP, histone and casein
Sequence of EPHB3 (P54753 34-998): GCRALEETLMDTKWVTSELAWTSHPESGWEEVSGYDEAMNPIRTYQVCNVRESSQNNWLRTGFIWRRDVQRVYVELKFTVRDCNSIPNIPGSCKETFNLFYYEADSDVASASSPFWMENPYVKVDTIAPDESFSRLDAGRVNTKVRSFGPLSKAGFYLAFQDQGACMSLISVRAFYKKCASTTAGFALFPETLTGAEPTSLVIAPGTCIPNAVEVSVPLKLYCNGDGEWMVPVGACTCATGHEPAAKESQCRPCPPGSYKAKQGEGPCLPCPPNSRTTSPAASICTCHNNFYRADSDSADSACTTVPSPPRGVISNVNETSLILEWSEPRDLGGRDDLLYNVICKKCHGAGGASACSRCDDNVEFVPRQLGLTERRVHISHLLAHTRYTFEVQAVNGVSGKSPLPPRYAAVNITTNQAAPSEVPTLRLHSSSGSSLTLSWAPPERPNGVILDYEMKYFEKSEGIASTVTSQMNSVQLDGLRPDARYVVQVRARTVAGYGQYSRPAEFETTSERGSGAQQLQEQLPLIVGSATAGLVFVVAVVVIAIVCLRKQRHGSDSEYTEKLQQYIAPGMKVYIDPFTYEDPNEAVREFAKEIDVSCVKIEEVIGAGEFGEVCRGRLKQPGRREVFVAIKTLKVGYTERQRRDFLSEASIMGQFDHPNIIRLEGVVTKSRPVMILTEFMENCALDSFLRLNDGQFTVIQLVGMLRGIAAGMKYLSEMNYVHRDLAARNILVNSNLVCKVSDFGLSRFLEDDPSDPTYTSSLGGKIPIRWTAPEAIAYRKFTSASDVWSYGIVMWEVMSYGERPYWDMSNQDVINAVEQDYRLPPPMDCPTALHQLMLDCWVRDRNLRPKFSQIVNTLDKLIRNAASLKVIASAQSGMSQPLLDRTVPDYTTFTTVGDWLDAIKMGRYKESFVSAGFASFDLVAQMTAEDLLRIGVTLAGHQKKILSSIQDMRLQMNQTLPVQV
Description: as §1
Microarrays were prepared with 10 wells/slide, wherein the kinases EPHB3, FYN, and PRKCD and their substrate were immobilized in each well. The slide was coated with substrate essentially as described in Example I. Subsequently, a gasket with 10 openings was applied to the surface of the slide thereby creating 10 wells, i.e., the gasket provides the barriers between the wells. The accession numbers for the different kinases in the NCBI database are: for FYN: NM_002037; for PRKCD: NM_006254; and for EPHB3: NM_004443.

FYN = FYN (Homo sapiens, UniProt P06241); test: as above; type: biochemical; settings: different inhibitor concentration in each well; substrate MBP, histone and casein
Sequence of FYN (P06241 whole entry): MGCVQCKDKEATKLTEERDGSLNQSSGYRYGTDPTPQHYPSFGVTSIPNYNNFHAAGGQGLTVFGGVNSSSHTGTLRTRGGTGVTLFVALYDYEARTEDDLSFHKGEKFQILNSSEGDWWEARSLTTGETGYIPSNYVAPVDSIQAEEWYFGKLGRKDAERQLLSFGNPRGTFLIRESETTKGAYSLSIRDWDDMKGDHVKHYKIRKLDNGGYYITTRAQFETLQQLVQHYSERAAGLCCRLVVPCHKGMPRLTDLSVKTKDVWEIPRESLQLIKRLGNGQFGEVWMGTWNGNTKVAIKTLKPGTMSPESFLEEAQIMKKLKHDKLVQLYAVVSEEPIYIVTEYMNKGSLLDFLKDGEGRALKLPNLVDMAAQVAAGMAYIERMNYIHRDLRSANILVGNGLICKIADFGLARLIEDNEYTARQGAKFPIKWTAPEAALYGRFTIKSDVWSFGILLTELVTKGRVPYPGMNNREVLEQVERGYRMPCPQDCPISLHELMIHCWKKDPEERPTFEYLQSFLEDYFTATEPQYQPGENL
Description: as §1
(§2) Microarrays were prepared with 10 wells/slide, wherein the kinases EPHB3, FYN, and PRKCD and their substrate were immobilized in each well.

39 kinases (Table 4) = test: Global specificity profiling experiment, single point inhibition on kinase microarray; type: biochemical; settings: substrates histone, casein, MBP, polyEY, control 2% DMSO
Description: as §1
To assess the application of microarray assays for compound profiling, seven known inhibitors (see Table of inhibitors used in global specificity profiling experiment) and one control (2% DMSO) were tested on microarrays deposited with a group of kinases (as well as positive and negative controls). The method of Example I was used. Twelve spots of each kinase or control were deposited on each array, and three arrays were used for each inhibitor. A mixture of generic kinase substrates (histone, casein, MBP, and polyEY) was used in the assay. The average of all signals from the same inhibitor or control experiment was calculated.
. The general specificities observed were consistent with the known general specificities for these inhibitors, which are listed in Table 3.

PRKCD = PRKCD (Homo sapiens, UniProt Q05655); test: Dose-response analysis on 10-well kinase microarray; type: biochemical; settings: different inhibitor concentration in each well; substrate MBP, histone and casein
Sequence of PRKCD (Q05655 whole entry): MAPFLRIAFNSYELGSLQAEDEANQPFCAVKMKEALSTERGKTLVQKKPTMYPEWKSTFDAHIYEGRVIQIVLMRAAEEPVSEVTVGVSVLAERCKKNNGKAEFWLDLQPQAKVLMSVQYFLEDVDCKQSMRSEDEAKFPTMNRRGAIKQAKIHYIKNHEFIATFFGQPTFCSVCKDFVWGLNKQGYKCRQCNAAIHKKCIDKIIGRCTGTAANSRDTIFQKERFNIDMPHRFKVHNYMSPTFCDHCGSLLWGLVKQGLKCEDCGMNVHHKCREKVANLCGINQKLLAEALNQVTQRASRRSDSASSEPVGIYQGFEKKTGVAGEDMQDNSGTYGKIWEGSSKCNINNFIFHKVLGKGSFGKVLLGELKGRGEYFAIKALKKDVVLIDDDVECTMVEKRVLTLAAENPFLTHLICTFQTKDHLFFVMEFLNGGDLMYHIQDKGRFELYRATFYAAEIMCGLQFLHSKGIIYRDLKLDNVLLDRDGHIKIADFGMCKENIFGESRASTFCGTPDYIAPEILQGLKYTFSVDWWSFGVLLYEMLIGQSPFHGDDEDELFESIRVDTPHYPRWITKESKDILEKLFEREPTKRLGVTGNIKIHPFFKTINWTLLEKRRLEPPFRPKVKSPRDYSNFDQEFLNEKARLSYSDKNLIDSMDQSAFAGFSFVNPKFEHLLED
Description: as §1, §2

tyrosine kinases = test: Inhibitor specificity profiling on kinase microarray (fifty kinases, gamma-AT33P); settings: inhibitor 100 μm; substrate mixture of MBP, histone and casein
Description: To coat slides with kinase substrate, the substrates are diluted to 10 ng/μL in 1×PBS and 180-200 μL of substrate solution are pipetted onto one slide, e.g., a glass slide, aldehyde treated slides (TeleChem International, Inc.), nitrocellulose-coated slides (Schleicher & Schuell), slides with an amino-silane surface (Corning). A second slide is then placed on top of the first slide so that the sides to be deposited with kinases face each other. Care should be taken that the liquid covers the entire slide and that there are no air bubbles. The slides are placed in a 50 mL conical tube, making sure they are laying flat and incubated at 4° C. for one hour to several days.
Subsequently, approximately 100 mL of PBST are added to the dish. The slides are then washed for one hour at 4° C. with shaking. The PBST is then discarded and the slides are gently rinsed with dH2O using a squirt bottle. After rinsing, the slides are placed into a slide boxes and centrifuged at 4000 rpm for one minute. The slides are then stored at 4° C. until printing with kinase.
1 mL of kinase assay buffer for every 12 glass slides to be probed is prepared. 6 μL of gamma-AT^33P (10 μCi/μL) are added to the assay buffer. The slides are placed in 50 mL conical tubes, laying flat, proteins facing up. 70 μL to 150 μL of the kinase assay buffer with gamma-AT^33P are added onto each slide. […]

Sequence of kinases of Table 5 (Homo sapiens, UniProt O75716) (O75716 whole entry): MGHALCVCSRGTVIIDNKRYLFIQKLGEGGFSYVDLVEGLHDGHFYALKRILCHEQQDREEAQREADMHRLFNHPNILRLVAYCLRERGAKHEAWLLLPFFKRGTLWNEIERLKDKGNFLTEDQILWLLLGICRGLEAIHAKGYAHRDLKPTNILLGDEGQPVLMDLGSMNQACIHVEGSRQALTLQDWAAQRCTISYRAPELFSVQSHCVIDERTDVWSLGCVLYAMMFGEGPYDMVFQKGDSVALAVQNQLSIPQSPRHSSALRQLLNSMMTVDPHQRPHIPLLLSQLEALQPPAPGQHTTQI

Row | Structure (SMILES) | Inhibition Results (Level) (kinases of Table 5 [1]; inhibitor 100 uM) | Inhibition Results (Level) (kinases of Table 5 [2]) | Inhibition level (kinases of Table 5 [3]; concentration not given) | Inhibition level (kinases of Table 5 [3]; inhibitor 100 uM) | Inhibition level (kinases of Table 5 [4]) | Inhibition Results (Level) (kinases of Table 5 [5]; inhibitor 100 uM) | Inhibition level (kinases of Table 5 [6]) | Inhibition Results (Level) (kinases of Table 5 [3]; inhibitor 100 uM) | Inhibition Results (Level) (kinases of Table 5 [4]) | specificity observed in global profiling (percentage-of-inhibition data) (39 kinases (Table 4)) | also measured
1 | O=c1c(-c2ccc(O)cc2)coc2cc(O)cc(O)c12 [Genistein] | 0 | 2 | 0 | 0 | 0 | 2 | 2 |  |  |  | Inhibition Results (Level) (kinases of Table 5 [1]; inhibitor <3.7 mM): 0; Inhibition Results (Level) (kinases of Table 5 [5]; inhibitor <3.7 mM): 0
2 | N#C/C(=C/c1ccc(O)c(O)c1)C(=O)NCc1ccccc1 [AG 490] | 0 | 1 |  | 0 | 2 | 2 | 2 |  |  |  | 
3 | COc1cc2ncnc(Nc3cccc(Cl)c3)c2cc1OC [AG 1478] | 0 | 1 |  | 1 | 1 | 1 | 1 |  |  |  | 
4 | CC(=O)c1c(O)c(C)c(O)c(Cc2c(O)c3c(c(C(=O)/C=C/c4ccccc4)c2O)OC(C)(C)C=C3)c1O [Rottlerin (Mallotoxin)] | 0 | 1 |  |  |  | 2 |  | 0 | 1 |  | Inhibition Results (Level) (kinases of Table 5 [6]): 1
5 | CN[C@@H]1C[C@H]2O[C@@](C)([C@@H]1OC)n1c3ccccc3c3c4c(c5c6ccccc6n2c5c31)C(=O)NC4 [Staurosporine] |  |  | 0 |  |  |  |  |  |  | broad spectrum of kinases inhibited | inhibition of EPHB3 (dose-response) (EPHB3): not; inhibition of FYN (dose-response) (FYN): strongly inhibits; Inhibition Results (Level) (kinases of Table 5 [1]; inhibitor 21.5 uM): 2; Inhibition Results (Level) (kinases of Table 5 [5]; inhibitor 21.5 uM): 2
6 | O=S(=O)(NCCNC/C=C/c1ccc(Br)cc1)c1cccc2cnccc12 [H-89] | 2 | 1 |  |  |  | 2 |  | 2 | 1 |  | Inhibition Results (Level) (kinases of Table 5 [6]): 2
7 | CC(C)(C)n1nc(-c2ccc(Cl)cc2)c2c(N)ncnc21 [PP2] | 2 | 2 |  | 2 | 2 | 2 | 2 |  |  | primarily inhibited tyrosine kinases | inhibition of EPHB3 (dose-response) (EPHB3): strongly inhibits; inhibition of PRKCD (dose-response) (PRKCD): not; inhibition of tyrosine kinases (tyrosine kinases): strongly inhibited
8 | O=c1c(O)c(-c2ccc(O)c(O)c2)oc2cc(O)cc(O)c12 [Quercetin] | 0 | 0 |  |  |  | 0 |  | 0 | 0 |  | 
9 | Cn1cc(C2=C(c3cn(CCCSC(=N)N)c4ccccc34)C(=O)NC2=O)c2ccccc21 [Ro-31-8220] | 1 | 2 | 0 | 2 | 2 | 0 | 2 |  |  | more specifically targeted the serine-threonine kinases | Inhibition Results (Level) (kinases of Table 5 [1]; inhibitor 90 uM): 2; Inhibition Results (Level) (kinases of Table 5 [5]; inhibitor 90 uM): 2
